The source of these data is ChEMBL document CHEMBL1201862, “PubChem BioAssay data set” (2004).

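Each compound was tested at five concentrations against cells in 96-well plates for 48 hours. The concentration for 50% growth inhibition is given as GI50.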 The source made the active and inactive calls. No stated cut-off is given here; in the data, active = GI50 up to about 1.1 µM and inactive = higher.

Some test systems named below: 786-0; A549; CAKI-1; COLO 205; HCT-116; HL-60; HT-29; IGROV-1; KM12; LOX IMVI; M14; Malme-3M; OVCAR-3; OVCAR-5; SF-295; SF-539; SNB-19; SR; UO-31; UACC-62.
What all share (assay): NCI tumour cell line growth inhibition, 48 h

Regarding `C/C(Cl)=N\OC(=O)Nc1ccc(C)cc1`, the GI50 in the test on 786-0 was 18.7 µM (inactive); in the test with A549 it was 18.2 µM (inactive); in the test on CAKI-1, 16.7 µM (inactive); in the test with COLO 205, 16.2 µM (inactive); in the test with HCT-116, 19.1 µM (inactive); in the test with HL-60, 2.22 µM (inactive). The GI50 in the test with HT-29 was 22.9 µM (inactive); in the test on IGROV-1, 16.7 µM (inactive); in the test with KM12, 17.2 µM (inactive); with LOX IMVI, 17.5 µM (inactive); in the test with M14 it was 17.2 µM (inactive); in the test with Malme-3M, 16.9 µM (inactive). Besides, the GI50 is 18 µM (inactive) with OVCAR-3; 18.5 µM (inactive) in the test with OVCAR-5; 16.6 µM (inactive) with SF-295; 18.7 µM (inactive) in the test with SF-539; > 100 µM (inactive) with SNB-19; 9.64 µM (inactive) in the test with SR. Also, the GI50 with UO-31 is 17.4 µM (inactive).

As to `Cc1cc(C)n(-c2nc3ccccc3c(=O)n2-c2ccccc2)n1`, the GI50 in the test with 786-0, in the test with A549, in the test with CAKI-1, with COLO 205, in the test with HCT-116 and in the test on HL-60 was > 100 µM (inactive) each time. Further, the GI50 with HT-29, with IGROV-1, with LOX IMVI, in the test on M14, in the test with Malme-3M and in the test on OVCAR-3 was > 100 µM (inactive) in each case. Also, the GI50 is > 100 µM (inactive) with OVCAR-5; > 100 µM (inactive) with SF-295; > 100 µM (inactive) in the test with SF-539; > 100 µM (inactive) in the test with SNB-19; > 100 µM (inactive) in the test with SR; 0.621 µM (active) in the test with UO-31.

For the molecule `Cc1ccc2c(c1)C(=O)C1(C2)Cc2ccc(C)cc2C1=O`, the GI50 in the test with 786-0, in the test with A549, in the test with CAKI-1, in the test with HCT-116, in the test with HL-60 and in the test on HT-29 was > 100 µM (inactive) throughout. The GI50 in the test with IGROV-1, with LOX IMVI, with M14, with Malme-3M, with OVCAR-3 and in the test on OVCAR-5 was > 100 µM (inactive) throughout. The GI50 in the test with SF-295, with SF-539, with SNB-19, with SR and in the test on UO-31 was > 100 µM (inactive) throughout.

For the molecule `CC(=O)N(C)c1ccc(Nc2ccnc3ccc4nn(C)nc4c23)cc1`, the GI50 in the test with 786-0 is 26.9 µM (inactive); in the test with A549, 17.5 µM (inactive); in the test on CAKI-1, 12.2 µM (inactive); in the test on COLO 205 it was 19.1 µM (inactive); in the test with HCT-116, 19 µM (inactive); in the test with HL-60, 18.4 µM (inactive). The GI50 in the test with HT-29 was 29.4 µM (inactive); in the test on KM12, 24.4 µM (inactive); in the test with LOX IMVI, 16 µM (inactive); with M14, 31.4 µM (inactive); with Malme-3M, 18.9 µM (inactive); with OVCAR-3 it was 19.3 µM (inactive). Moreover, the GI50 with OVCAR-5 was 30.1 µM (inactive); with SF-295, 21.8 µM (inactive); in the test with SF-539, 19.2 µM (inactive); with SNB-19, 37.3 µM (inactive); in the test on SR, 25.6 µM (inactive); with UACC-62, 16.1 µM (inactive). For the same molecule, the GI50 in the test with UO-31 is 9.02 µM (inactive).

As for `CN1C(=S)CSc2ccccc21`, the GI50 in the test with 786-0, with A549, in the test with CAKI-1, in the test on COLO 205, in the test on HCT-116 and in the test with HL-60 was > 100 µM (inactive) in each case. Besides, the GI50 in the test with HT-29, in the test on IGROV-1, in the test on KM12, in the test on LOX IMVI, in the test on M14 and in the test with Malme-3M was > 100 µM (inactive) in each case. In addition, the GI50 is > 100 µM (inactive) in the test with OVCAR-3; > 100 µM (inactive) in the test on OVCAR-5; > 100 µM (inactive) in the test on SF-539; > 100 µM (inactive) with SNB-19; > 100 µM (inactive) with SR; 42.3 µM (inactive) in the test on UO-31.

In the case of `N#CC[C@@H](O)COc1ccccc1`, the GI50 in the test on 786-0, with A549, in the test with CAKI-1, with COLO 205, in the test with HCT-116 and with HL-60 was > 100 µM (inactive) each time. Besides, the GI50 with HT-29, with KM12, in the test on LOX IMVI, in the test with M14, in the test with Malme-3M and with OVCAR-3 was > 100 µM (inactive) each time. The GI50 in the test on OVCAR-5, with SF-295, in the test with SF-539, in the test on SNB-19, in the test with SR and in the test on UACC-62 was > 100 µM (inactive) in each case. Also, in the test on UO-31, the GI50 is > 100 µM (inactive).

For the molecule `Cc1nnc2nc(-c3ccc(Cl)cc3Cl)cc(-c3ccc(Cl)cc3)n12`, the GI50 in the test on 786-0 is > 100 µM (inactive); in the test on A549, 76.4 µM (inactive); in the test with CAKI-1, 66.5 µM (inactive); in the test with COLO 205, 13.7 µM (inactive); in the test on HCT-116, > 100 µM (inactive); in the test on HL-60, > 100 µM (inactive). The GI50 is 20.5 µM (inactive) in the test with HT-29; > 100 µM (inactive) in the test with KM12; > 100 µM (inactive) in the test on LOX IMVI; > 100 µM (inactive) in the test with M14; > 100 µM (inactive) with Malme-3M; 50.1 µM (inactive) with OVCAR-3. Besides, the GI50 is > 100 µM (inactive) in the test on OVCAR-5; 91.4 µM (inactive) with SF-295; > 100 µM (inactive) in the test on SF-539; > 100 µM (inactive) in the test with SNB-19; > 100 µM (inactive) in the test with SR; > 100 µM (inactive) with UACC-62. Besides, in the test with UO-31, the GI50 was 24.4 µM (inactive).

With `CC(CN1CCN(CC(C)Nc2ccnc3cc(Cl)ccc23)CC1)Nc1ccnc2cc(Cl)ccc12` (stereo not drawn), the GI50 in the test with 786-0 was 17.8 µM (inactive); in the test with A549 it was 17.8 µM (inactive); in the test with CAKI-1 it was 35.4 µM (inactive); in the test on COLO 205 it was 14.4 µM (inactive); in the test with HCT-116, 13.4 µM (inactive); in the test on HL-60, 8.93 µM (inactive). In addition, the GI50 in the test on HT-29 is 6.93 µM (inactive); with KM12, 13.4 µM (inactive); in the test with LOX IMVI it was 3.76 µM (inactive); in the test on M14 it was 14.5 µM (inactive); with Malme-3M it was 21.2 µM (inactive); with OVCAR-3, 22.8 µM (inactive). Besides, the GI50 in the test with OVCAR-5 was 23.2 µM (inactive); with SF-295, 19.6 µM (inactive); in the test on SF-539, 16 µM (inactive); with SNB-19 it was 29 µM (inactive); with SR, 1.83 µM (inactive); in the test with UACC-62 it was 17.9 µM (inactive). Also, the GI50 in the test with UO-31 was 22.7 µM (inactive).
